Test results: patent publication US9474790B2, “Stable, protracted GLP-1/glucagon receptor co-agonists for medical use” (Novo Nordisk A/S, priority 2013, dated 2016)
Numbered stars: 1 amine (or outer) side, 2 acyl side, 3 side chain; on linkers, the order of the positions; unused ones are H or OH. Bridge positions count the residues as written; N and C are the ends. Square brackets hold non-standard residues; d marks the D form. Side chains are listed from the residue outwards. Peptide text beside a SMILES is read from it. I, II: the chains in the order shown. * marks the point of attachment. C18 diacid = O=C(O)CCCCCCCCCCCCCCCCC(=O)*; γGlu = O=C(O)[C@H](CCC(=O)[*:2])N[*:1]; Ac4c = NC1(C(=O)O)CCC1; AEEA = NCCOCCOCC(=O)O; Aib = CC(C)(N)C(=O)O

Legend:
[1] = biological target: T1, human GLP-1 receptor (Homo sapiens, UniProt P43220); assay: GLP-1 receptor potency, CRE luciferase reporter gene assay in BHK cells; type: cell-based; details: BHK cells expressing human GLP-1 receptor, read-out: EC50 GLP-1R
T1 construct: expressed in transfected cells; host or cells: BHK cells (parent BHKTS13), clone FCW467-12A/KZ10-1, with CRE luciferase
T1 sequence (P43220 24-463): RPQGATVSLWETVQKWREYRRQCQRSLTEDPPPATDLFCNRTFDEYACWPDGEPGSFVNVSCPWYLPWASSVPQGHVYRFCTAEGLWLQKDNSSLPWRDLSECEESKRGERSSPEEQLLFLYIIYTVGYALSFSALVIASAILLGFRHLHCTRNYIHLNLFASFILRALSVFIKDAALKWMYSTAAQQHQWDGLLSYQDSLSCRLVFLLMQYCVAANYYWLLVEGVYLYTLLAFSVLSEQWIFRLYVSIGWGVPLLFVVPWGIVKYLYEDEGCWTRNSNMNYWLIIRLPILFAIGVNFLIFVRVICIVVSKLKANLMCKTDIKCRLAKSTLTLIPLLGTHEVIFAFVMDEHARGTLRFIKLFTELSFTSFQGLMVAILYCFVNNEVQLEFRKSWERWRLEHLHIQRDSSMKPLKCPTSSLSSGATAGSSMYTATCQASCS
How it was run: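 Potency as cAMP-driven firefly luciferase signal after 3 h, 37° C exposure to 10-fold dilutions (final 1×10EE-13–1×10EE-6 M). Stable hGLP-1R/CRE-luc BHK clone, 5×10EE3 cells/well, medium containing 2% ovalbumin and 0.2% Pluronic F-68; EC50 (pM) from variable-slope non-linear regression.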

[2] = Thioflavin T (ThT) fibrillation assay for physical stability; type: physicochemical; details: 250 μM in 10 mM HEPES buffer, pH 7.5, 37° C., shaking 960 rpm
How it was run: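 Fibrillation was followed by ThT (1 μM) fluorescence every 20 min, 444/485 nm, for 250 μM peptide in 10 mM HEPES pH 7.5 shaken at 960 rpm, 37° C. Lag time (t0−2τ) and apparent rate constant (1/τ) come from a sigmoidal fit. Recovery is % of initial concentration remaining soluble after centrifugation and filtration (RP-HPLC).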

Row | SMILES | EC50 [1] | THT assay Lag time (Ex. 76) [2]
1 | CC(C)C[C@H](NC(=O)[C@H](Cc1ccc(O)cc1)NC(=O)[C@H](CCCCN)NC(=O)[C@H](CO)NC(=O)[C@H](CC(C)C)NC(=O)[C@H](CC(=O)O)NC(=O)[C@H](CO)NC(=O)[C@@H](NC(=O)[C@H](Cc1ccccc1)NC(=O)[C@@H](NC(=O)CNC(=O)[C@H](Cc1c[nH]cn1)NC(=O)C(C)(C)NC(=O)[C@@H](N)Cc1c[nH]cn1)[C@@H](C)O)[C@@H](C)O)C(=O)N[C@@H](CCC(=O)O)C(=O)N[C@@H](CO)C(=O)N[C@@H](CCCCN)C(=O)N[C@@H](CCCNC(=N)N)C(=O)N[C@@H](C)C(=O)N[C@@H](CCCNC(=N)N)C(=O)N[C@@H](CCC(=O)O)C(=O)N[C@@H](Cc1ccccc1)C(=O)N[C@H](C(=O)N[C@@H](CCC(N)=O)C(=O)N[C@@H](Cc1c[nH]c2ccccc12)C(=O)N[C@@H](CC(C)C)C(=O)N[C@@H](CC(C)C)C(=O)N[C@@H](CCCCNC(=O)CC[C@H](NC(=O)CC[C@H](NC(=O)COCCOCCNC(=O)COCCOCCNC(=O)CC[C@H](NC(=O)CCCCCCCCCCCCCCCCC(=O)O)C(=O)O)C(=O)O)C(=O)O)C(=O)N[C@H](C(N)=O)[C@@H](C)O)C(C)C [Example 27, N^ε28-[(4S)-4-carboxy-4-[[(4S)-4-carboxy-4-[[2-[2-[2-[[2-[2-[2-[[(4S)-4-carboxy-4-(17-carboxyheptadecanoylamino)butanoyl]amino]ethoxy]ethoxy]acetyl]amino]ethoxy]ethoxy]acetyl]amino]butanoyl]amino]butanoyl]-[Aib2,His3,Leu10,Glu15,Lys17,Arg20,Glu21,Leu27, Lys28]-Glucagon amide] (H-H[Aib]HGTFTSDLSKYLESKRAREFVQWLLK([γGlu-γGlu-AEEA-AEEA-γGlu-C18 diacid])T-NH2; N-terminus assumed) | 4.1 pM | 42 h
2 | CC(C)C[C@H](NC(=O)[C@H](Cc1ccc(O)cc1)NC(=O)[C@H](CCCCN)NC(=O)[C@H](CO)NC(=O)[C@H](CC(C)C)NC(=O)[C@H](CC(=O)O)NC(=O)[C@H](CO)NC(=O)[C@@H](NC(=O)[C@H](Cc1ccccc1)NC(=O)[C@@H](NC(=O)CNC(=O)[C@H](Cc1c[nH]cn1)NC(=O)C1(NC(=O)[C@@H](N)Cc2c[nH]cn2)CCC1)[C@@H](C)O)[C@@H](C)O)C(=O)N[C@@H](CCC(=O)O)C(=O)N[C@@H](CO)C(=O)N[C@@H](CCCNC(=N)N)C(=O)N[C@@H](CCCNC(=N)N)C(=O)N[C@@H](C)C(=O)N[C@@H](CCC(N)=O)C(=O)N[C@@H](CC(=O)O)C(=O)N[C@@H](Cc1ccccc1)C(=O)N[C@H](C(=O)N[C@@H](CCC(N)=O)C(=O)N[C@@H](Cc1c[nH]c2ccccc12)C(=O)N[C@@H](CC(C)C)C(=O)N[C@@H](CC(C)C)C(=O)N[C@@H](CCCCNC(=O)CNC(=O)[C@H](CO)NC(=O)[C@H](CCC(=O)O)NC(=O)CNC(=O)[C@H](CO)NC(=O)CC[C@H](NC(=O)CC[C@H](NC(=O)CCCCCCCCCCCCCCCCC(=O)O)C(=O)O)C(=O)O)C(=O)N[C@H](C(N)=O)[C@@H](C)O)C(C)C [Example 35, N^ε28-[2-[[(2S)-2-[[(2S)-4-carboxy-2-[[2-[[(2S)-2-[[(4S)-4-carboxy-4-[[(4S)-4-carboxy-4-(17-carboxyheptadecanoylamino)butanoyl]amino]butanoyl]amino]-3-hydroxypropanoyl]amino]acetyl]amino]butanoyl]amino]-3-hydroxypropanoyl]amino]acetyl]-[Acb2,His3,Leu10,Glu15, Leu27,Lys28]-Glucagon amide] (I: H-H[Ac4c]HGTFTSDLSKYLESRRAQDFVQWLLKT-NH2 / II: {C18 diacid-γGlu-γGlu}-SGESG; amide I:28-II:C; N-terminus assumed) | 3 pM | 45 h

Continued by falling EC50 [1], values first:

Row | EC50 [1] | THT assay Lag time (Ex. 76) [2] | SMILES
3 | 22.1 pM | 45 h | CC(C)C[C@H](NC(=O)[C@H](Cc1ccc(O)cc1)NC(=O)[C@H](CCCCN)NC(=O)[C@H](CO)NC(=O)[C@H](CC(C)C)NC(=O)[C@H](CC(=O)O)NC(=O)[C@H](CO)NC(=O)[C@@H](NC(=O)[C@H](Cc1ccccc1)NC(=O)[C@@H](NC(=O)CNC(=O)[C@H](CCC(N)=O)NC(=O)C(C)(C)NC(=O)[C@@H](N)Cc1c[nH]cn1)[C@@H](C)O)[C@@H](C)O)C(=O)N[C@@H](CCC(=O)O)C(=O)N[C@@H](CO)C(=O)N[C@@H](CCCNC(=N)N)C(=O)N[C@@H](CCCNC(=N)N)C(=O)N[C@@H](C)C(=O)N[C@@H](CCCNC(=N)N)C(=O)N[C@@H](CCC(=O)O)C(=O)N[C@@H](Cc1ccccc1)C(=O)N[C@H](C(=O)N[C@@H](CCC(N)=O)C(=O)N[C@@H](Cc1c[nH]c2ccccc12)C(=O)N[C@@H](CC(C)C)C(=O)N[C@@H](CC(C)C)C(=O)N[C@@H](CCCCNC(=O)CC[C@H](NC(=O)CC[C@H](NC(=O)COCCOCCNC(=O)COCCOCCNC(=O)CC[C@H](NC(=O)CCCCCCCCCCCCCCCCC(=O)O)C(=O)O)C(=O)O)C(=O)O)C(=O)N[C@H](C(N)=O)[C@@H](C)O)C(C)C [Example 23, N^ε28-[(4S)-4-carboxy-4-[[(4S)-4-carboxy-4-[[2-[2-[2-[[2-[2-[2-[[(4S)-4-carboxy-4-(17-carboxyheptadecanoylamino)butanoyl]amino]ethoxy]ethoxy]acetyl]amino]ethoxy]ethoxy]acetyl]amino]butanoyl]amino]butanoyl]-[Aib2,Leu10,Glu15,Arg20,Glu21,Leu27,Lys28]-Glucagon amide] (H-H[Aib]QGTFTSDLSKYLESRRAREFVQWLLK([γGlu-γGlu-AEEA-AEEA-γGlu-C18 diacid])T-NH2; N-terminus assumed)
4 | 14.7 pM | 45 h | CC(C)C[C@H](NC(=O)[C@H](Cc1ccc(O)cc1)NC(=O)[C@H](CCCCN)NC(=O)[C@H](CO)NC(=O)[C@H](CC(C)C)NC(=O)[C@H](CC(=O)O)NC(=O)[C@H](CO)NC(=O)[C@@H](NC(=O)[C@H](Cc1ccccc1)NC(=O)[C@@H](NC(=O)CNC(=O)[C@H](Cc1c[nH]cn1)NC(=O)C(C)(C)NC(=O)[C@@H](N)Cc1c[nH]cn1)[C@@H](C)O)[C@@H](C)O)C(=O)N[C@@H](CCC(=O)O)C(=O)N[C@@H](CO)C(=O)N[C@@H](CCCCN)C(=O)N[C@@H](CCCNC(=N)N)C(=O)N[C@@H](C)C(=O)N[C@@H](CCCNC(=N)N)C(=O)N[C@@H](CCC(=O)O)C(=O)N[C@@H](Cc1ccccc1)C(=O)N[C@H](C(=O)N[C@@H](CCC(N)=O)C(=O)N[C@@H](Cc1c[nH]c2ccccc12)C(=O)N[C@@H](CC(C)C)C(=O)N[C@@H](CC(C)C)C(=O)N[C@@H](CCCCNC(=O)CC[C@H](NC(=O)CC[C@H](NC(=O)CC[C@H](NC(=O)CCCCCCCCCCCCCCCCC(=O)O)C(=O)O)C(=O)O)C(=O)O)C(=O)N[C@H](C(N)=O)[C@@H](C)O)C(C)C [Example 34, N^ε28-[(4S)-4-carboxy-4-[[(4S)-4-carboxy-4-[[(4S)-4-carboxy-4-(17-carboxyheptadecanoylamino)butanoyl]amino]butanoyl]amino]butanoyl]-[Aib2,His3,Leu10,Glu15,Lys17,Arg20,Glu21,Leu27,Lys28]-Glucagon amide] (H-H[Aib]HGTFTSDLSKYLESKRAREFVQWLLK([γGlu-γGlu-γGlu-C18 diacid])T-NH2; N-terminus assumed)
5 | 2 pM | 45 h | CC(C)C[C@H](NC(=O)[C@H](Cc1ccc(O)cc1)NC(=O)[C@H](CCCCN)NC(=O)[C@H](CO)NC(=O)[C@H](CC(C)C)NC(=O)[C@H](CC(=O)O)NC(=O)[C@H](CO)NC(=O)[C@@H](NC(=O)[C@H](Cc1ccccc1)NC(=O)[C@@H](NC(=O)CNC(=O)[C@H](CCC(N)=O)NC(=O)C1(NC(=O)[C@@H](N)Cc2c[nH]cn2)CCC1)[C@@H](C)O)[C@@H](C)O)C(=O)N[C@@H](CCC(=O)O)C(=O)N[C@@H](CO)C(=O)N[C@@H](CCCCN)C(=O)N[C@@H](CCCNC(=N)N)C(=O)N[C@@H](C)C(=O)N[C@@H](CCCNC(=N)N)C(=O)N[C@@H](CCC(=O)O)C(=O)N[C@@H](Cc1ccccc1)C(=O)N[C@H](C(=O)N[C@@H](CCC(N)=O)C(=O)N[C@@H](Cc1c[nH]c2ccccc12)C(=O)N[C@@H](CC(C)C)C(=O)N[C@@H](CC(C)C)C(=O)N[C@@H](CCCCNC(=O)CNC(=O)[C@H](CO)NC(=O)[C@H](CCC(=O)O)NC(=O)CNC(=O)[C@H](CO)NC(=O)CC[C@H](NC(=O)CC[C@H](NC(=O)CCCCCCCCCCCCCCCCC(=O)O)C(=O)O)C(=O)O)C(=O)N[C@H](C(N)=O)[C@@H](C)O)C(C)C [Example 36, N^ε28-[2-[[(2S)-2-[[(2S)-4-carboxy-2-[[2-[[(2S)-2-[[(4S)-4-carboxy-4-[[(4S)-4-carboxy-4-(17-carboxyheptadecanoylamino)butanoyl]amino]butanoyl]amino]-3-hydroxypropanoyl]amino]acetyl]amino]butanoyl]amino]-3-hydroxypropanoyl]amino]acetyl]-[Acb2,Leu10,Glu15,Lys17, Arg20,Glu21,Leu27,Lys28]-Glucagon amide] (I: H-H[Ac4c]QGTFTSDLSKYLESKRAREFVQWLLKT-NH2 / II: {C18 diacid-γGlu-γGlu}-SGESG; amide I:28-II:C; N-terminus assumed)
